Assay results from US20240041922A1, “METHODS AND COMPOSITIONS” (Monash University, priority 2020, published 2024).

Assays:
C2C12 myoblasts = assay: C2C12 myoblast proliferation (EdU incorporation); type: cell-based, mouse
Method: Larvae: Labelling and detection was carried out as previously described (Nguyen, P. D. et al. Muscle stem cells undergo extensive clonal drift during tissue growth via Meox1-mediated induction of G2 cell-cycle arrest. […] Cell culture: Cells were incubated for 1 h in media supplemented with 10 μM EdU. […] Cells were processed using the Click-iTTM EdU Alexa FluroTM 647 imaging Kit (Thermo Fisher) following the manufacturer's protocol. The mouse muscle cell line […]. Serial passaging and differentiation of myogenic cells isolated from dystrophic mouse muscle. Nature 270, 725 (1977) were cultured in growth media (Dulbecco's Modified Eagle Medium (4.5 g/l D-Glucose, No L Glutamine, No Sodium Pyruvate (Gibco))+20% Fetal Bovine Solution-One Shot (Gibco)+1% Glut Max 100x (Gibco)). Cells were maintained at 37° C., 5% CO2. Cells at 70% confluence, passage 8 were extracted from T75 flasks with 0.025% Tryspin EDTA (Gibco), neutralised in growth media, spun at 180×g for 5 min to pellet cells. The cells were then resuspended in 10 ml of fresh growth media. 500 μl of cells were plated on a 8-well on cover glass II (Sarstedt) chamber slide at a density of 1×10^3 cells/ml. Cells were left 4 h at 37° C. to re-attach. For drug treatments, the media were supplemented with appropriate doses and cultured for 6 h.

PAX7+ satellite cells = assay: Primary mouse myoblast mono- and co-cultures, PAX7+ satellite cell proliferation (EdU); type: cell-based; conditions: 100 nM inhibitor
Method: Larvae: Labelling and detection was carried out as previously described (Nguyen, P. D. et al. Muscle stem cells undergo extensive clonal drift during tissue growth via Meox1-mediated induction of G2 cell-cycle arrest. […] Cell culture: Cells were incubated for 1 h in media supplemented with 10 μM EdU. […] Cells were processed using the Click-iTTM EdU Alexa FluroTM 647 imaging Kit (Thermo Fisher) following the manufacturer's protocol. For isolation of primary mouse myoblasts, limb skeletal muscle from E17.5 C57/BL6J mice were minced and digested in 0.125% Trypsin at 37° C. for 20 min. […] Myoblasts were again depleted for fibroblasts prior to co-culturing on gelatin-coated 48 well plates in DMEM+20% FBS+10% L929-conditioned medium. 100,000 myoblasts were plated with either 7,500 MafB/c-Maf deficient (Maf-DKO) macrophages (Aziz, A., Soucie, E., Sarrazin, […]. MafB/c-Maf deficiency enables self-renewal of differentiated functional macrophages. […] For drug treatments, the media were supplemented with appropriate doses and cultured for 24 h.

O=C(NCC(=O)N1CC[C@H](N[C@H]2CC[C@@](O)(c3ccc(-c4ncccn4)cn3)CC2)C1)c1cccc(C(F)(F)F)c1 [PF-4136309, reference compound]
effect on NAMPT-induced myoblast proliferation (C2C12 myoblasts; co-administration with NAMPT, 6 h): does not hinder NAMPT's stimulatory effect on myoblast proliferation
effect on macrophage-stimulated satellite cell proliferation (PAX7+ satellite cells; MB+macrophage co-culture): had no negative effect
effect on NAMPT-stimulated satellite cell proliferation (PAX7+ satellite cells; with hrNAMPT): maintained

mrCCL2: recombinant murine CCL2/MCP-1 (PeproTech), CCR2-specific ligand
myoblast proliferation, factor added alone (C2C12 myoblasts; 6 h in growth media): failed to increase proliferative rates beyond that of the control
